The values below come from patent publication US10214519B2, “Phosphatidylinositol 3-kinase inhibitors” (Gilead Sciences, Inc., priority 2016, dated 2019).

The test concerns the target PI3Kβ (Homo sapiens (Human), UniProt P42338). Put plainly: PI3K isoform TR-FRET enzymatic assay (PI3Kβ). It is filed as biochemical. The settings on record: 2× Km ATP, 30 minutes at 25° C. A digest of the protocol:
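IC50 came from four-parameter dose-response fits, normalized between DMSO and 1 μM wortmannin controls. The read-out was TR-FRET (615/665 nm) of PIP3 displacing fluorescent PIP3 from Europium GRP-1 after 10 mM EDTA termination. Compounds were incubated with purified heterodimeric PI3Kβ for 30 min at 25° C.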

Sequence of PI3Kβ (P42338 whole entry, canonical isoform): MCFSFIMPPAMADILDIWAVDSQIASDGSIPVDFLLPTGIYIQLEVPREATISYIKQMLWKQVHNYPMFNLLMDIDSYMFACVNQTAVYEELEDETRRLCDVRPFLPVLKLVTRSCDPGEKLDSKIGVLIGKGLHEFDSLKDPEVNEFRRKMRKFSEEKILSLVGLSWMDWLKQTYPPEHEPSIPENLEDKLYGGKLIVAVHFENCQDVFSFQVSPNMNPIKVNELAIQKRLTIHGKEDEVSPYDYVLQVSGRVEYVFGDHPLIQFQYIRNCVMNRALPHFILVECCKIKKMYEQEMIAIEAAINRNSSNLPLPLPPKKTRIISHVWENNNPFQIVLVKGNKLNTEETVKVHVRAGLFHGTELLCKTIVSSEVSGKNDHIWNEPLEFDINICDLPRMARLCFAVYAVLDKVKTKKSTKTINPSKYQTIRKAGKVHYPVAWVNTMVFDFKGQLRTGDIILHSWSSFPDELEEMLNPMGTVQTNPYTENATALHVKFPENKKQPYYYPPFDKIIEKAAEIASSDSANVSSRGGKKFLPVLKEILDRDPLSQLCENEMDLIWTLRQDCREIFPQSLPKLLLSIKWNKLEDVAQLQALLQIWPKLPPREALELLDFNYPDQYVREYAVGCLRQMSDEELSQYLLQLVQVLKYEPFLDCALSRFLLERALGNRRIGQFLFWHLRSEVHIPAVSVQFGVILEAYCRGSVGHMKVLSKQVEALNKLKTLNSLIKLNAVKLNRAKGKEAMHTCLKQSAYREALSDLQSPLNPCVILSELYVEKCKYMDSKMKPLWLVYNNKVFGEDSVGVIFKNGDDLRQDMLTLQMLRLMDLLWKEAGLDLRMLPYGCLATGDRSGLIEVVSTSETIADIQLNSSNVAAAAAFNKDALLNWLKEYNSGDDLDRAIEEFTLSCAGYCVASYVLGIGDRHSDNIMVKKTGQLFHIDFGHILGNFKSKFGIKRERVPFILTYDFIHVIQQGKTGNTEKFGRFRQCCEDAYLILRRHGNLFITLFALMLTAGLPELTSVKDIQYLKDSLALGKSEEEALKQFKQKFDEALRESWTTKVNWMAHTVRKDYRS
Sequence of PI3Kβ (P27986 whole entry partner, canonical isoform): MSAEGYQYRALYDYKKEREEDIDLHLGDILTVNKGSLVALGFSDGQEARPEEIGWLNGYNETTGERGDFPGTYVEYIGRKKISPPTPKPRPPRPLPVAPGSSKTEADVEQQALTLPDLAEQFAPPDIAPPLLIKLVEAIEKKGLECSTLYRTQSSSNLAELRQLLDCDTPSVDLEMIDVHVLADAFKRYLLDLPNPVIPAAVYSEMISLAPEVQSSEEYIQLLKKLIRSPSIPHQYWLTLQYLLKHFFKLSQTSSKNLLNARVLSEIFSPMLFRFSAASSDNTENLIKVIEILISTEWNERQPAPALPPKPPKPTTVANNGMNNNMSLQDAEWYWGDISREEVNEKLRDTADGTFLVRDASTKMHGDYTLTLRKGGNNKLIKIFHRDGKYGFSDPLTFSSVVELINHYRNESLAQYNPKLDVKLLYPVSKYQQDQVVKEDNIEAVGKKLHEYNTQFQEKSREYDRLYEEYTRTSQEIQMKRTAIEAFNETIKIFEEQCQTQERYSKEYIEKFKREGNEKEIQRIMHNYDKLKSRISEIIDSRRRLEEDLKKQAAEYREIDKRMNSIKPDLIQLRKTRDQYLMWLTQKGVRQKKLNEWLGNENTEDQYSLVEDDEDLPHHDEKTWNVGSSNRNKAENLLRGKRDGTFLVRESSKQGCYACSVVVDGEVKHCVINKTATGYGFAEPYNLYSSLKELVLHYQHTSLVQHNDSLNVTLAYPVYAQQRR

For the molecule `Cc1cc(-n2c(C)nc3c(-c4cnc(Cl)[nH]4)cc(N4CCOCC4)cc32)c2cccc(F)c2n1` [Example 282, 4-[7-(2-chloro-1H-imidazol-5-yl)-3-(8-fluoro-2-methylquinolin-4-yl)-2-methylbenzimidazol-5-yl]morpholine], it took 25 nM to reach half-maximal inhibition (IC50).
Take `CCc1nc2c(-c3nnc(C)[nH]3)cc(N3CCOCC3)cc2n1-c1ccnc2c(Cl)cccc12` [Example 133, 4-[3-(8-chloroquinolin-4-yl)-2-ethyl-7-(5-methyl-4H-1,2,4-triazol-3-yl)benzimidazol-5-yl]morpholine]: the IC50 (in general, the concentration that inhibits the measured activity by half) turned out to be 21 nM.
Turning to `FC(F)c1cc(-n2cnc3c(-c4nnc[nH]4)cc(N4CCOCC4)cc32)c2cccc(Cl)c2n1` [Example 88, 4-[3-[8-chloro-2-(difluoromethyl)quinolin-4-yl]-7-(4H-1,2,4-triazol-3-yl)benzimidazol-5-yl]morpholine], the half-inhibitory concentration (IC50) was determined as 4 nM.
As for `Fc1ccc2c(-n3c(CC4CC4)nc4c(-c5nnc[nH]5)cc(N5CCOCC5)cc43)ccnc2c1Cl` [Example 31, 4-(1-(8-chloro-7-fluoroquinolin-4-yl)-2-(cyclopropylmethyl)-4-(4H-1,2,4-triazol-3-yl)-1H-benzo[d]imidazol-6-yl)morpholine], the half-maximal inhibitory concentration (IC50) was found to be 9 nM.
As for `Clc1cccc2c(-n3c(C4CCCO4)nc4c(-c5cccnc5)cc(N5CCOCC5)cc43)ccnc12` (stereo not drawn) [Example 199], the half-maximal inhibitory concentration (IC50) was found to be 610 nM.
For `Cc1nnc(-c2cc(N3CCOCC3)cc3c2ncn3-c2ccnc3c(Cl)c(F)ccc23)[nH]1` [Example 40, 4-(1-(8-chloro-7-fluoroquinolin-4-yl)-4-(5-methyl-4H-1,2,4-triazol-3-yl)-1H-benzo[d]imidazol-6-yl)morpholine], the concentration for half-maximal inhibition (IC50) amounted to 22 nM.
`Cc1nc2c(-c3nnc[nH]3)cc(N3CCOCC3)cc2n1-c1c(F)cnc2ccccc12` [Example 153, 4-(1-(3-fluoroquinolin-4-yl)-2-methyl-4-(4H-1,2,4-triazol-3-yl)-1H-benzo[d]imidazol-6-yl)morpholine]: the IC50 came out at 120 nM.
`Cc1nc2c(-c3cnc(Cl)[nH]3)cc(N3CCOCC3)cc2n1-c1ccnc2c(F)ccc(F)c12` [Example 298, 4-[7-(2-chloro-1H-imidazol-5-yl)-3-(5,8-difluoroquinolin-4-yl)-2-methylbenzimidazol-5-yl]morpholin] displayed an IC50 of 10 nM.
Consider `Cc1nc2c(-c3cccs3)cc(N3CCOCC3)cc2n1-c1ccnc2c(Cl)cccc12` [Example 271, 4-[3-(8-chloroquinolin-4-yl)-2-methyl-7-thiophen-2-ylbenzimidazol-5-yl]morpholine], for which the IC50 was found to be 46 nM.
In turn, `Cc1nc[nH]c1-c1cc(N2CCOCC2)cc2c1nc(C)n2-c1ccnc2c(Cl)cccc12` [Example 177, 4-[3-(8-chloroquinolin-4-yl)-2-methyl-7-(4-methyl-1H-imidazol-5-yl)benzimidazol-5-yl]morpholine] yielded an IC50 of 230 nM.
Consider `Cc1nnc(-c2cc(N3CCOCC3)cc3c2ncn3-c2ccnc3c(F)ccc(F)c23)[nH]1` [Example 44, 4-(1-(5,8-difluoroquinolin-4-yl)-4-(5-methyl-4H-1,2,4-triazol-3-yl)-1H-benzo[d]imidazol-6-yl)morpholine], for which 19 nM corresponded to half-maximal inhibition (IC50).
The result for `Cc1nc2c(-c3nnc[nH]3)cc(N3CCOCC3)cc2n1-c1cc(N2CCNCC2)nc2ccccc12` [Example 168, 4-(2-methyl-1-(2-(piperazin-1-yl)quinolin-4-yl)-4-(4H-1,2,4-triazol-3-yl)-1H-benzo[d]imidazol-6-yl)morpholine 2,2,2-trifluoroacetate] reads 9 nM; that for `c1ccc2c(-n3cnc4c(-c5nnc[nH]5)cc(N5CCOCC5)cc43)cc(-c3cn[nH]c3)nc2c1` [Example 381, 4-(1-(2-(1H-pyrazol-4-yl)quinolin-4-yl)-4-(4H-1,2,4-triazol-3-yl)-1H-benzo[d]imidazol-6-yl)morpholine], 24 nM.
`CCc1nc2c(-c3nnc[nH]3)cc(N3CCOCC3)cc2n1-c1ccnc2c(Cl)cccc12` [Example 105, 4-[3-(8-chloroquinolin-4-yl)-2-ethyl-7-(4H-1,2,4-triazol-3-yl)benzimidazol-5-yl]morpholine] registered a half-maximal inhibitory concentration (IC50) of 10 nM.
`CCc1nc2c(-c3nnc(C)[nH]3)cc(N3CCOCC3)cc2n1-c1c(Cl)cnc2c(Cl)cccc12` [Example 26, 4-[3-(3,8-dichloroquinolin-4-yl)-2-ethyl-7-(5-methyl-4H-1,2,4-triazol-3-yl)benzimidazol-5-yl]morpholine] gave a half-maximal inhibitory concentration (IC50) of 22 nM.
Turning to `Cc1nc2c(-c3nnc[nH]3)cc(N3CCOCC3)cc2n1-c1c(Cl)cnc2c(F)cccc12` [Example 27, 4-[3-(3-chloro-8-fluoroquinolin-4-yl)-2-methyl-7-(4H-1,2,4-triazol-3-yl)benzimidazol-5-yl]morpholine], the IC50 was 56 nM.
Consider `Cc1nnc(-c2cc(N3CCOCC3)cc3c2nc(C)n3-c2ccnc3c(Cl)cccc23)[nH]1` [Example 129, 4-[3-(8-chloroquinolin-4-yl)-2-methyl-7-(5-methyl-4H-1,2,4-triazol-3-yl)benzimidazol-5-yl]morpholine], for which 23 nM corresponded to half-maximal inhibition (IC50).
For the molecule `Cc1n[nH]c(-c2cc(N3CCOCC3)cc3c2nc(C)n3-c2c(C)cnc3ccccc23)n1` [Example 74, 4-[2-methyl-3-(3-methylquinolin-4-yl)-7-(3-methyl-1H-1,2,4-triazol-5-yl)benzimidazol-5-yl]morpholine], half-maximal inhibition (IC50) required 62 nM.
Molecule `Fc1ccc(F)c2c(-n3c(C4CC4)nc4c(-c5nnc(Cl)[nH]5)cc(N5CCOCC5)cc43)ccnc12` [Example 181, 4-[7-(5-chloro-4H-1,2,4-triazol-3-yl)-2-cyclopropyl-3-(5,8-difluoroquinolin-4-yl)benzimidazol-5-yl]morpholine] gave a concentration for half-maximal inhibition (IC50) of 210 nM.
To `Clc1cccc2c(-n3c(C4CCCO4)nc4c(-c5nnc[nH]5)cc(N5CCOCC5)cc43)ccnc12` (stereo not drawn) [Example 102, 4-[3-(8-chloroquinolin-4-yl)-2-(oxolan-2-yl)-7-(4H-1,2,4-triazol-3-yl)benzimidazol-5-yl]morpholine] belongs 21 nM; to `Cc1nnc(-c2cc(N3CCOCC3)cc3c2nc(-c2ccncc2)n3-c2ccnc3c(Cl)cccc23)[nH]1` [Example 25, 4-(1-(8-chloroquinolin-4-yl)-4-(5-methyl-4H-1,2,4-triazol-3-yl)-2-(pyridin-4-yl)-1H-benzo[d]imidazol-6-yl)morpholine], 2200 nM.
Take `N#Cc1ncc(-c2cc(N3CCOCC3)cc3c2ncn3-c2ccnc3c(F)ccc(F)c23)[nH]1` [Compound 394, 5-(1-(5,8-Difluoroquinolin-4-yl)-6-morpholino-1H-benzo[d]imidazol-4-yl)-1H-imidazole-2-carbonitrile]: the half-inhibitory concentration (IC50) stood at 860 nM.
To `CCCc1nc2c(-c3nnc(C)[nH]3)cc(N3CCOCC3)cc2n1-c1ccnc2c(Cl)ccc(F)c12` [Example 11, 4-(1-(8-chloro-5-fluoroquinolin-4-yl)-4-(5-methyl-4H-1,2,4-triazol-3-yl)-2-propyl-1H-benzo[d]imidazol-6-yl)morpholine] belongs 42 nM; to `Cc1nc2c(-c3ccnn3C)cc(N3CCOCC3)cc2n1-c1ccnc2c(Cl)cccc12` [Example 269, 4-[3-(8-chloroquinolin-4-yl)-2-methyl-7-(2-methylpyrazol-3-yl)benzimidazol-5-yl]morpholine], 7000 nM.
